Experiments:
Type in all cases: biochemical
MMP-14 = MMP-14 (Homo sapiens, UniProt P50281); assay: MMP-14 enzyme inhibition assay (coumarin-labelled peptide substrate); conditions: read-out: percentage inhibition MMP14
How it was run: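 Recombinant human enzyme, APMA-activated if necessary, was incubated with McaPLGLDpaAR substrate and compound (10 concentrations in duplicate, 100 μM to 5.1 nM) in Tris-HCl pH 7.6 with NaCl, CaCl2 and Brij 35 for 2 h at 37 °C. Fluorescence was read at 320/405 nm, and IC50 was taken from a four-parameter fit.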

collagenase (MMP-1) = molecular target: T1, collagenase (MMP-1) (Homo sapiens, UniProt P03956); assay: MMP-1 enzyme inhibition assay (coumarin-labelled peptide substrate); conditions: read-out: percentage inhibition MMP1
T1 sequence (P03956 100-469): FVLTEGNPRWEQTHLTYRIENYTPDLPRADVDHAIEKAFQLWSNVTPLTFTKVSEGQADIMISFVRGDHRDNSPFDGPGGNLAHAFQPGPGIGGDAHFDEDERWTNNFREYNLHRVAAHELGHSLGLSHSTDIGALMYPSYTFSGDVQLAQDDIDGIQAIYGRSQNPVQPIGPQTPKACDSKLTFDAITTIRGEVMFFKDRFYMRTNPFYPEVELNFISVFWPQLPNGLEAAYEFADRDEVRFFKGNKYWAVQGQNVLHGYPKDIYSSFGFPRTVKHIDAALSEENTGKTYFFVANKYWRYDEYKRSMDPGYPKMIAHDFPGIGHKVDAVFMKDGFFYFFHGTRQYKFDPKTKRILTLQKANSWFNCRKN
How it was run: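 Recombinant human MMP-1, APMA-activated if needed, in Tris-HCl pH 7.6 with NaCl, CaCl2 and 0.05% Brij 35; McaPLGLDpaAR substrate added as 8 μM solution, 2 h at 37 °C. Fluorescence (320/405 nm) read without stopping; IC50 from 10 duplicate concentrations (100 μM–5.1 nM) by four-parameter fit.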

metalloelastase (MMP-12) = metalloelastase (MMP-12) (Homo sapiens, UniProt P39900); assay: MMP-12 enzyme inhibition assay (coumarin-labelled peptide substrate); conditions: read-out: IC50 MMP12
How it was run: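 Recombinant human MMP-12 assayed per the MMP-9 protocol: Tris-HCl pH 7.6 buffer with NaCl, CaCl2, Brij 35; McaPLGLDpaAR substrate, compounds 100 μM–5.1 nM in duplicate, 2 h at 37° C. Fluorescence read at 405 nm (320 nm excitation) without stopping; IC50 from four-parameter fit.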

Chain of metalloelastase (MMP-12) (P39900 106-470): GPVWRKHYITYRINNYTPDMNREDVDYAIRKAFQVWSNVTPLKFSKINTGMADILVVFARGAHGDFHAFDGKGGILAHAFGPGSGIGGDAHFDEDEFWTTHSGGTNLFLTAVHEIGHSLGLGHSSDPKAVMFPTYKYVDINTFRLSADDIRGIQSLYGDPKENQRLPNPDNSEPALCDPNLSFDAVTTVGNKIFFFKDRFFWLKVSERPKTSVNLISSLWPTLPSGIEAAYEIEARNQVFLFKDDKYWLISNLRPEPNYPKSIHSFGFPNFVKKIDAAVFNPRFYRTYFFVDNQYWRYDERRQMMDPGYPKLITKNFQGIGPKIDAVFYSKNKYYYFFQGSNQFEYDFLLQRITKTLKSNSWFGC

Row | SMILES | inhibition at 5 µM (MMP-14) | inhibition at 5 µM (collagenase (MMP-1)) | IC50 (metalloelastase (MMP-12)) | inhibition at 0.1 µM (MMP-14) | inhibition at 0.1 µM (collagenase (MMP-1))
1 | O=CN(O)C(CS(=O)(=O)N1CCc2ccc(F)cc2C1)c1ccoc1 (stereo not drawn) [Example 52, N-[2-[(7-fluoro-3,4-dihydroisoquinolin-2(1H)-yl)sulfonyl]-1-(3-furyl)ethyl]-N-hydroxyformamide] | 49% | 14% | 46 nM | – | –
2 | O=CN(O)C(CS(=O)(=O)N1CCc2ccc(F)cc2C1)C1CCN(Cc2ccccc2)CC1 (stereo not drawn) [Example 53, N-{1-(1-benzylpiperidin-4-yl)-2-[(7-fluoro-3,4-dihydro-isoquinolin-2(1H)-yl)sulfonyl]ethyl}-N-hydroxyformamide] | 34% | 16% | 106 nM | – | –
3 | CC(C)(CS(=O)(=O)N1CCc2ccc(Br)cc2C1)N(O)C=O [Example 56, N-{2-[(7-bromo-3,4-dihydroisoquinolin-2(1H)-yl)sulfonyl]-1,1-dimethylethyl}-N-hydroxyformamide] | 48% | 34% | 51 nM | – | –
4 | CC(C)(C)c1ccc2c(c1)CN(S(=O)(=O)CC(COCc1ccccc1)N(O)C=O)CC2 (stereo not drawn) [Example 57, N-(2-(benzyloxy)-1-{[(7-tert-butyl-3,4-dihydroisoquinolin-2(1H)-yl)sulfonyl]methyl}ethyl)-N-hydroxyformamide] | 0% | 0% | 117 nM | – | –
5 | O=CN(O)C(COCc1ccccc1)CS(=O)(=O)N1CCc2ccc(C(F)(F)F)cc2C1 (stereo not drawn) [Example 59, N-[2-(benzyloxy)-1-({[7-(trifluoromethyl)-3,4-dihydro-isoquinolin-2(1H)-yl]sulfonyl}methyl)ethyl]-N-hydroxyformamide] | 43% | 35% | 7.5 nM | – | –
6 | O=CN(O)C(CS(=O)(=O)N1CCc2ccc(F)cc2C1)C1CCCC1 (stereo not drawn) [Example 60, N-{1-cyclopentyl-2-[(7-fluoro-3,4-dihydroisoquinolin-2(1H)-yl)sulfonyl]ethyl}-N-hydroxyformamide] | 16% | 6% | 69 nM | – | –
7 | O=CN(O)C1(CS(=O)(=O)N2CCc3ccc(Cl)cc3C2)CCCC1 [Example 62, N-(1-{[(7-chloro-3,4-dihydroisoquinolin-2(1H)-yl)-sulfonyl]methyl}cyclopentyl)-N-hydroxyformamide] | 75% | 52% | 36 nM | – | –
8 | CCCCCC(C)(C)C(CS(=O)(=O)N1CCc2cc(C(F)(F)F)ccc2C1)N(O)C=O (stereo not drawn) [Example 63, N-[2,2-dimethyl-1-({[6-(trifluoromethyl)-3,4-dihydro-isoquinolin-2(1H)-yl]sulfonyl}methyl)heptyl]-N-hydroxyformamide] | 9% | 34% | 88 nM | – | –
9 | O=CN(O)C(CS(=O)(=O)N1CCc2ccc(Br)cc2C1)C1CCCC1 (stereo not drawn) [Example 64, N-{2-[(7-bromo-3,4-dihydroisoquinolin-2(1H)-yl)sulfonyl]-1-cyclopentylethyl}-N-hydroxyformamide] | 71% | 36% | 7.9 nM | – | –
10 | O=CN(O)C(CS(=O)(=O)N1CCc2ccc(-c3ccsc3)cc2C1)C1CCCC1 (stereo not drawn) [Example 68, N-(1-cyclopentyl-2-{[7-(3-thienyl)-3,4-dihydroisoquinolin-2(1H)-yl]sulfonyl}ethyl)-N-hydroxyformamide] | 99% | 0% | 9 nM | -30% | –
11 | O=CN(O)C(CS(=O)(=O)N1CCc2ccc(-c3ccccc3)cc2C1)C1CCCC1 (stereo not drawn) [Example 69, N-{1-cyclopentyl-2-[(7-phenyl-3,4-dihydroisoquinolin-2(1H)-yl)sulfonyl]ethyl}-N-hydroxyformamide] | 63% | 4% | 18 nM | – | –
12 | O=CN(O)C(CS(=O)(=O)N1CCc2ccc(-c3cccc(O)c3)cc2C1)C1CCCC1 (stereo not drawn) [Example 70, N-(1-cyclopentyl-2-{[7-(3-hydroxyphenyl)-3,4-dihydroisoquinolin-2(1H)-yl]sulfonyl}ethyl)-N-hydroxyformamide] | 27% | 0% | 41 nM | – | –
13 | O=CN(O)C(CS(=O)(=O)N1Cc2ccccc2C1)C1CC1 (stereo not drawn) [Example 72, N-[1-cyclopropyl-2-(1,3-dihydro-2H-isoindol-2-ylsulfonyl)-ethyl]-N-hydroxyformamide] | 63% | 75% | 20 nM | – | –
14 | O=CN(O)C(CS(=O)(=O)N1CCc2cc(C(F)(F)F)ccc2C1)C1CC1 (stereo not drawn) [Example 74, N-(1-cyclopropyl-2-{[6-(trifluoromethyl)-3,4-dihydro-isoquinolin-2(1H)-yl]sulfonyl}ethyl)-N-hydroxyformamide] | 76% | 44% | 5.2 nM | – | –
15 | O=CN(O)C(CS(=O)(=O)N1CCc2ccc(-c3ccc(F)cc3)cc2C1)C1CC1 (stereo not drawn) [Example 75, N-(1-cyclopropyl-2-{[7-(4-fluorophenyl)-3,4-dihydro-isoquinolin-2(1H)-yl]sulfonyl}ethyl)-N-hydroxyformamide] | 92% | 0% | 6 nM | 11% | –

Now from value to compound:

Row | inhibition at 5 µM (MMP-14) | inhibition at 5 µM (collagenase (MMP-1)) | IC50 (metalloelastase (MMP-12)) | inhibition at 0.1 µM (MMP-14) | inhibition at 0.1 µM (collagenase (MMP-1)) | SMILES
16 | 86% | 69% | 6 nM | 19% | 7% | CC(C)CC(CS(=O)(=O)N1CCc2ccc(Br)cc2C1)N(O)C=O (stereo not drawn) [Example 55, N-(1-{[(7-bromo-3,4-dihydroisoquinolin-2(1H)-yl)-sulfonyl]methyl}-3-methylbutyl)-N-hydroxyformamide]
17 | 79% | 68% | 4.5 nM | 11% | 4% | O=CN(O)C(COCc1ccccc1)CS(=O)(=O)N1CCc2ccc(Cl)cc2C1 (stereo not drawn) [Example 58, N-(2-(benzyloxy)-1-{[(7-chloro-3,4-dihydroisoquinolin-2(1H)-yl)sulfonyl]methyl}ethyl)-N-hydroxyformamide]
18 | 43% | 22% | 15 nM | – | – | O=CN(O)C(COc1ccccc1)CS(=O)(=O)N1CCc2ccc(Cl)cc2C1 (stereo not drawn) [Example 61, N-[2-[(7-chloro-3,4-dihydroisoquinolin-2(1H)-yl)sulfonyl]-1-(phenoxymethyl)ethyl]-N-hydroxyformamide]
19 | 50% | 30% | 27 nM | – | – | CC(C)(C)C(CS(=O)(=O)N1CCc2ccc(Cl)cc2C1)N(O)C=O (stereo not drawn) [Example 65, N-(1-{[(7-chloro-3,4-dihydroisoquinolin-2(1H)-yl)sulfonyl]methyl}-2,2-dimethylpropyl)-N-hydroxyformamide]
20 | 40% | 19% | 45 nM | – | – | O=CN(O)C(CS(=O)(=O)N1CCc2ccc(Cl)cc2C1)C1CC1 (stereo not drawn) [Example 73, N-{2-[(7-chloro-3,4-dihydroisoquinolin-2(1H)-yl)sulfonyl]-1-cyclopropylethyl}-N-hydroxyformamide]
21 | 59% | 43% | 22 nM | – | – | O=CN(O)C(CCC(F)(F)F)CS(=O)(=O)N1CCc2ccc(Cl)cc2C1 (stereo not drawn) [Example 76, N-(1-{[(7-chloro-3,4-dihydroisoquinolin-2(1H)-yl)-sulfonyl]methyl}-4,4,4-trifluorobutyl)-N-hydroxyformamide]
